Test results taken from patent EP4660195A1, “CRYSTALLINE FORMS OF AVATROMBOPAG MALEATE AND PREPARATION THEREOF” (NOUCOR HEALTH S.A., priority 2024, dated 2025).
Structures can show the parent of a compound that is named as a salt.

Tests used:
[1] = pH 1 to 11; cited from earlier work
[2] = in vivo; cited from earlier work
[3] = Stability of screened solid forms with time; assay type: physicochemical
Protocol: Form C9 was only exclusively obtained using chloroform as a solvent, which solvent is not suitable for industrial manufacturing of a drug according to regulatory requirements. These solid forms are consequently not suitable for industrial manufacturing of a drug.
Amorphous Avatrombopag maleate (200 mg) was suspended in methanol (10 mL) at room temperature, and stirred for 15 hours, filtered and dried in the air. […] After 24 hours, the solid was analyzed by PXRD again - only form beta was observed. ^1H NMR analysis of said solid form indicated the presence of methanol in the crystalline form. In order to remove the methanol to obtain an anhydrous form, form beta was dried in vacuum for 2 hours at 70°C. After said desolvation step, crystalline forma alpha was obtained.

[4] = Hygroscopicity by Dynamic Vapor Sorption analysis; assay type: physicochemical; conditions: for gain of weight by absorption of water: 25°C
Protocol: Dynamic Vapor Sorption Analysis (DVS) were performed in a Mettler Toledo TGA / DSC 1 LF instrument equipped with a LF SDTA FRS2 sensor and coupled with a Modular Humidity Generator MHG 32. Data collection and evaluation was done with STARe software. Measurement conditions: The samples were analysed following a humidity cycle from 20%RH up to 80%RH, down to 3%RH, up to 90 and down to 3%RH in 10% steps of 30 minutes at 25°C. Sample preparation: Approximately 5-10 mg of sample were weighed (using a MX5 Mettler Toledo microbalance) into 150 µL platinum crucibles without lid.

[5] = Thermal stability at 90 °C for 24 hours, PXRD and 1H NMR; assay type: physicochemical; conditions: open or closed vial
Source text: (§1) The Powder X-Ray diffraction (PXRD) patterns were acquired on a Bruker D8 Advance Series 2Theta/Theta powder diffraction system using CuKα1-radiation operated at 40 kV and 40 mA in transmission geometry. The system is equipped with a VÅNTEC-1 single photon counting PSD, a Germanium monochromator, a ninety positions auto changer sample stage, fixed divergence slits and a radial soller. Programs used: Data collection with DIFFRAC plus XRD Commander V.2.5.1, and evaluation with High Score Plus 4.9 (Malvern PANalytical B.V.). Measurement conditions: The samples were measured in a range from 4 to 40° in 2θ in a 6 or 30 minutes measurement using an angular step of 0.05° and a time per step of […]. Sample preparation: 20 mg of non-manipulated sample were prepared in standard sample holders using two foils of polyacetate
Proton nuclear magnetic resonance analyses (^1H NMR spectroscopy) were recorded in a Bruker 300 NMR spectrometer, equipped with a z gradient 5 mm BBO (Broadband Observe) probe with ATM and an automatic autosampler. Measurement conditions: The samples were analysed at room temperature. Sample preparation: Approximately 2-5 mg of sample were dissolved in 0.7 mL of deuterated solvent (dimethylsulfoxide-d6).

[6] = Solid form stability in climatic chamber at 40°C and 75% RH, monitored by PXRD; assay type: physicochemical; conditions: 40°C and 75% RH, 1, 5 and 13 days
Source text: as §1
A sample of Crystalline Form Alpha of Avatrombopag maleate was stored for 13 days in a climatic chamber at 40°C and 75% RH, and the solid form was monitored by PXRD.

For `O=C(Nc1nc(-c2cc(Cl)cs2)c(N2CCN(C3CCCCC3)CC2)s1)c1cnc(N2CCC(C(=O)O)CC2)c(Cl)c1.O=C(O)/C=C\C(=O)O` [Avatrombopag maleate], the aqueous solubility [1] is listed as “practically insoluble”.
For `O=C(Nc1nc(-c2cc(Cl)cs2)c(N2CCN(C3CCCCC3)CC2)s1)c1cnc(N2CCC(C(=O)O)CC2)c(Cl)c1.O=C(O)/C=C\C(=O)O` [Form A, Avatrombopag maleate], the oral absorption [2] is given as “excellent oral absorption”.
For `O=C(Nc1nc(-c2cc(Cl)cs2)c(N2CCN(C3CCCCC3)CC2)s1)c1cnc(N2CCC(C(=O)O)CC2)c(Cl)c1` [Form B, Avatrombopag maleate], the oral absorption [2] is listed as “inferior oral absorption”.
With `O=C(Nc1nc(-c2cc(Cl)cs2)c(N2CCN(C3CCCCC3)CC2)s1)c1cnc(N2CCC(C(=O)O)CC2)c(Cl)c1.O=C(O)/C=C\C(=O)O` [Form C5, Avatrombopag maleate] the “stability of the solid form with time” value ([3]; listed as C5) was “lose crystallinity with time”.
In the case of `O=C(Nc1nc(-c2cc(Cl)cs2)c(N2CCN(C3CCCCC3)CC2)s1)c1cnc(N2CCC(C(=O)O)CC2)c(Cl)c1.O=C(O)/C=C\C(=O)O` [Form C11, Avatrombopag maleate], the “stability of the solid form with time” value ([3]; listed as C11) was “unstable”.
With `O=C(Nc1nc(-c2cc(Cl)cs2)c(N2CCN(C3CCCCC3)CC2)s1)c1cnc(N2CCC(C(=O)O)CC2)c(Cl)c1.O=C(O)/C=C\C(=O)O` [Form C22, Avatrombopag maleate] the “stability of the solid form with time” value ([3]; listed as C22) was “lose crystallinity with time”.
For `O=C(Nc1nc(-c2cc(Cl)cs2)c(N2CCN(C3CCCCC3)CC2)s1)c1cnc(N2CCC(C(=O)O)CC2)c(Cl)c1` [Form C, Avatrombopag maleate], the oral absorption [2] is given as “excellent oral absorption”.
In the case of `O=C(Nc1nc(-c2cc(Cl)cs2)c(N2CCN(C3CCCCC3)CC2)s1)c1cnc(N2CCC(C(=O)O)CC2)c(Cl)c1` [Form alpha, Avatrombopag maleate], the “solid form (PXRD) before and after DVS analysis” value ([4]; exposure to relative humidity as high as 90%) was “preserves its solid form”, the “gain of weight by absorption of water” value ([4]; relative humidity of 70%) was “below 0.3%” and the “gain of weight by absorption of water” value ([4]; relative humidity of 80%) was “below 0.4%”. The “gain of weight by absorption of water” value ([4]; relative humidity of 90%) was “below 0.7%”, the “solid form (PXRD, 1H NMR) after heating” value [5] was “preserves its solid form” and the “solid form (PXRD) after storage” value [6] was “preserves its solid form”.
For `O=C(Nc1nc(-c2cc(Cl)cs2)c(N2CCN(C3CCCCC3)CC2)s1)c1cnc(N2CCC(C(=O)O)CC2)c(Cl)c1.O=C(O)/C=C\C(=O)O` [Form gamma, Avatrombopag maleate], the “stability of the solid form with time” value ([3]; listed as form gamma) was “spontaneously converted into form beta with time”.
